The target in one assay is GGTase. Kind of assay: Inhibition of GGTase-mediated prenylation (in vitro prenylation assay). It counts as biochemical. Conditions: Table 1; partially purified GGTase, 5 μM recombinant H-ras (61L, CAIL), 1 μM [3H] geranylgeranyl diphosphate. From the text:
(§1) Nanomolar concentrations of the indicated compounds were sufficient to inhibit farnesylation of ras proteins in vitro. For screening candidate compounds useful for the treatment of ras-associated tumors, the FTase assay is preferred. […] Substitutions which confer GGTase specificity as taught herein also produced potent inhibitors of GGTase.

For the next assay, the target named is T1, FTase (Bos taurus, UniProt P29702+P49355).
T1 construct: bovine brain by inference from the cited Moores et al. 1991
Kind of assay: Inhibition of FTase-mediated prenylation (in vitro prenylation assay). Type of assay: biochemical. Conditions: Table 1; partially purified FTase, 3 μM recombinant H-ras, 440 nM [3H]FPP, 15 min 37° C.
Text: as §1

In assay [1] the test system is H-ras farnesylation in H-ras (61L) transformed NIH3T3 fibroblasts. Nature of the assay: Inhibition of H-ras farnesylation in whole cells (Western blot). It counts as cell-based, mouse. How it is done:
The ability of compounds of the invention to inhibit H-ras farnesylation and rap1 geranylgeranylation in whole cells was determined. H-ras (61L) transformed NIH3T3 fibroblasts were generously provided by C. Der, Univ. N. Carolina. These fibroblasts were treated for 24 h with 50 μM lovastatin (control) or the indicated concentrations of inhibitor. The cells were lysed in 1% NP-40, 5 mM Tris-HCl (pH 8.0), 5 mM EDTA, 0.1 mM N-tosyl-L-phenylalanine chloromethyl ketone, 0.1 mM N-tosyl-L-lysine chloromethyl ketone, and 1 mM phenylmethylsulfonyl fluoride. The lysate was centrifuged (15000×g, 5 min.) and the supernatant was used as a cell extract. […] After transfer to IMMOBILON P™ membrane (Millipore), the blots were probed with LA069 mouse monoclonal antibody to H-ras (Quality Biotech), or rabbit polyclonal antibody to rap1/Krev (Santa Cruz Biotechnology). All Western blots were developed using ECL chemiluminescent reagents (Amersham).

The mark [2] stands for this setting: Mus musculus, NIH3T3, 24 h, Table 2.

Some results are limits rather than exact numbers.

Among the data in patent publication US5840918A, “Isoprenyl transferase inhibitors” (Eisai Co., Ltd., priority 1997, dated 1998) are IC50 values, retold here.

As to `CSCC[C@H](NC(=O)C(/C=C/C(/C=C/CCS)C(C)C)Cc1ccccc1)C(=O)O` (single isomer, unassigned) [PD052], the values for the IC50 on GGTase and on FTase were 8050 nM and 2810 nM, respectively.
With `CSCC[C@H](NC(=O)C(/C=C/C(/C=C/CCS)C(C)C)Cc1ccccc1)C(=O)O` (single isomer, unassigned) [PD112], the IC50 (commonly the concentration needed to halve the response being measured) at GGTase worked out at 8050 nM; at FTase, 2220 nM; in assay [1] (setting [2]), 193000 nM.
For `CSCC[C@H](NC(=O)C(/C=C/[C@@H](/C=C/C(N)CS)C(C)(C)C)C(C)C)C(=O)O` (single isomer, unassigned) [PD152] the same measures were 44 nM, 23 nM and 320 nM.
For the molecule `COC(=O)[C@H](CCS(C)(=O)=O)NC(=O)C(Cc1cccs1)NC[C@@H](/C=C/C(N)CS)C(C)C` (stereo partly shown) [PA011], the half-inhibitory concentration (IC50) on GGTase came to 11000 nM; at FTase, 140 nM; in assay [1] (setting [2]) it was 100 nM.
As to `COC(=O)[C@H](CCS(C)(=O)=O)NC(=O)C(Cc1cccs1)N(C)C[C@@H](/C=C/C(N)CS)C(C)C` (stereo partly shown) [PA021], the IC50 at GGTase worked out at 7100 nM; on FTase, 28 nM; in assay [1] (setting [2]) it was 80 nM.
With `CSCC[C@H](NC(=O)C(Cc1cccs1)NC[C@@H](/C=C/C(N)CS)C(C)C)C(=O)O` (stereo partly shown) [PA031], the figures for the IC50 (at GGTase; on FTase; in assay [1] (setting [2])) were 215 nM, 3.6 nM and 1000 nM, respectively.
In the case of `CSCC[C@H](NC(=O)C(Cc1ccccc1)NC[C@@H](/C=C/C(N)CS)C(C)C)C(=O)O` (stereo partly shown) [PA041], the IC50 worked out at 56 nM at GGTase, 2.5 nM on FTase and 3500 nM in assay [1] (setting [2]).
`CC[C@H](C)[C@H](NC[C@@H](/C=C/C(N)CS)C(C)C)C(=O)N[C@@H](CCSC)C(=O)O` (stereo partly shown) [PA051]: the figures for the IC50 (on GGTase; at FTase; in assay [1] (setting [2])) were 76 nM, 20 nM and 1900 nM, respectively.
The corresponding values for `CSCC[C@H](NC(=O)C(NC[C@@H](/C=C/C(N)CS)C(C)C)C(C)C)C(=O)O` (stereo partly shown) [PA061] are 48 nM, 2.1 nM and 580 nM.
On to `CSCC[C@H](NC(=O)C(Cc1cccs1)N(C)C[C@@H](/C=C/C(N)CS)C(C)C)C(=O)O` (stereo partly shown) [PA071], for which the IC50 was 500 nM on GGTase, 22 nM on FTase and 3100 nM in assay [1] (setting [2]).
For `COC(=O)[C@H](CCSC)NC(=O)C(Cc1cccs1)NC[C@@H](/C=C/C(N)CS)C(C)C` (stereo partly shown) [PA081] the same measures were 2660 nM, 102 nM and 25 nM.
For `COC(=O)[C@H](CCSC)NC(=O)C(Cc1ccccc1)NC[C@@H](/C=C/C(N)CS)C(C)C` (stereo partly shown) [PA091] the same measures were 2380 nM, 170 nM and 100 nM.
For `COC(=O)[C@H](CCSC)NC(=O)C(NC[C@@H](/C=C/C(N)CS)C(C)C)C(C)C` (stereo partly shown) [PA101] the same measures were 1300 nM, 170 nM and 240 nM.
As to `CC(C)[C@H](/C=C/C(N)CS)CNC(Cc1cccs1)C(=O)N[C@@H](CCS(C)(=O)=O)C(=O)O` (stereo partly shown) [PA111], the IC50 amounted to 270 nM at GGTase; 13 nM on FTase; 130 nM in assay [1] (Mus musculus, NIH3T3, Table 2, 24 h).
For the molecule `CC(C)[C@H](/C=C/C(N)CS)CN(C)C(Cc1cccs1)C(=O)N[C@@H](CCS(C)(=O)=O)C(=O)O` (stereo partly shown) [PA121], the IC50 on GGTase is 380 nM; on FTase, 15 nM; in assay [1] (setting [2]), 580 nM.
The corresponding values for `COC(=O)[C@H](CCSC)NC(=O)C(Cc1cccs1)N(C)C[C@@H](/C=C/C(N)CS)C(C)C` (stereo partly shown) [PA131] are 1800 nM, 28 nM and 39 nM.
The corresponding values for `CC[C@H](C)[C@H](NC[C@@H](/C=C/C(N)CS)C(C)C)C(=O)N[C@@H](CCSC)C(=O)OC` (stereo partly shown) [PA141] are 880 nM, 95 nM and 17 nM.
Regarding `CSCC[C@H](NC(=O)C(/C=C/[C@@H](/C=C/C(N)CS)C(C)(C)C)Cc1ccccc1)C(=O)O` (stereo partly shown) [PD012], the IC50 at GGTase worked out at 620 nM; on FTase, 38 nM; in assay [1] (Table 2, 24 h), 72000 nM.
As for `CC(C)C(/C=C/[C@@H](/C=C/C(N)CS)C(C)C)C(=O)N[C@@H](CCC(N)=O)C(=O)O` (stereo partly shown) [PD022], the results for the IC50 (on GGTase; at FTase; in assay [1] (setting [2])) were 3060 nM, 5.2 nM and 400 nM, respectively.
On to `CSCC[C@H](NC(=O)C(/C=C/[C@@H](/C=C/C(N)CS)C(C)C)C(C)C)C(=O)N1CCOCC1` (stereo partly shown) [PD032], for which the IC50 is 2860 nM on GGTase, 450 nM on FTase and 1950 nM in assay [1] (setting [2]).
For `CSCC[C@H](NC(=O)C(/C=C/[C@@H](/C=C/C(N)CS)C(C)C)C(C)C)C(N)=O` (stereo partly shown) [PD042] the same measures were 1620 nM, 5 nM and 1950 nM.
Consider `C[C@H](/C=C/C(N)CS)/C=C/C(Cc1ccccc1)C(=O)N[C@@H](CCC(N)=O)C(=O)O` (stereo partly shown) [PD062], for which the IC50 on GGTase was found to be 1760 nM; on FTase, 200 nM; in assay [1] (Table 2, 24 h) it was 21000 nM.
In the case of `CSCC[C@H](NC(=O)C(/C=C/[C@@H](/C=C/C(N)CS)C(C)C)C(C)C)C(=O)N(C)Cc1ccccn1` (stereo partly shown) [PD072], the values for the IC50 (at GGTase; on FTase; in assay [1] (setting [2])) were 680 nM, 42 nM and 7400 nM, respectively.
With `CSCCC(=O)NCC(/C=C/[C@@H](/C=C/[C@@H](N)CS)C(C)C)C(C)C` (stereo partly shown) [PD082], at FTase, the IC50 is 1570 nM.
As for `CC(C)C(/C=C/[C@@H](/C=C/C(N)CS)C(C)C)C(=O)N[C@H]1CCOC1=O` (stereo partly shown) [PD092], the IC50 at GGTase amounted to 3200 nM; on FTase it was 52 nM; in assay [1] (setting [2]) it was 780 nM.
With `C[C@H](/C=C/C(N)CS)/C=C/C(Cc1ccccc1)C(=O)N[C@@H](CCC(N)=O)C(=O)O` (stereo partly shown) [PD102], the IC50 is 394 nM at FTase and 75000 nM in assay [1] (Table 2, 24 h).
Regarding `CSCCC(NC(=O)C(/C=C\[C@@H](/C=C/C(N)CS)C(C)C)C(C)C)C(=O)O` (stereo partly shown) [PD122], the IC50 on GGTase was determined as 10 nM; on FTase, 3 nM; in assay [1] (setting [2]), 400 nM.
The corresponding values for `COC(=O)[C@H](CCS(C)(=O)=O)NC(=O)C(/C=C/[C@@H](/C=C/C(N)CS)C(C)C)C(C)C` (stereo partly shown) [PD132] are 4770 nM, 245 nM and 2600 nM.
The corresponding values for `CSCC[C@H](NC(=O)C(/C=C/[C@@H](/C=C/C(N)CS)C(C)(C)C)C(C)C)C(=O)O` (stereo partly shown) [PD142] are 2120 nM, 42 nM and 7300 nM.
For `CSCC[C@H](NC(=O)C(/C=C/C(/C=C/CCS)C(C)C)Cc1ccccc1)C(=O)O` (stereo partly shown) [PD162] the same measures were 4570 nM, 260 nM and 326000 nM.
In the case of `CC(C)C(/C=C/[C@@H](/C=C/C(N)CS)C(C)C)C(=O)N[C@@H](CCS(C)(=O)=O)C(=O)O` (stereo partly shown) [PD172], the IC50 at GGTase was found to be 750 nM; at FTase it was 7 nM; in assay [1] (setting [2]) it was 13100 nM.
As to `CSCC[C@H](NC(=O)C(/C=C/[C@@H](/C=C/C(N)CS)C(C)(C)C)Cc1ccccc1)C(=O)O` (stereo partly shown) [PD182], the IC50 at GGTase was 63.3 nM; on FTase, < 1 nM; in assay [1] (Table 2, 24 h), 2800 nM.
Turning to `CSCC[C@H](NC(=O)C(/C=C/[C@@H](/C=C/C(N)CS)C(C)C)C(C)C)C(=O)NCc1ccccn1` (stereo partly shown) [PD192], the half-inhibitory concentration (IC50) is 2990 nM on GGTase, 296 nM on FTase and 180 nM in assay [1] (setting [2]).
With `CC(C)C(/C=C/[C@@H](/C=C/C(N)CS)C(C)C)C(=O)N[C@@H](CO)C(=O)O` (stereo partly shown) [PD202], the IC50 on GGTase amounted to 1120 nM; at FTase, 17 nM; in assay [1] (setting [2]), 1950 nM.
`CSCCC(NC(=O)C(C=CC(C=CC(N)CSSCC(N)C=CC(C=CC(Cc1ccccc1)C(=O)NC(CCSC)C(=O)O)C(C)C)C(C)C)Cc1ccccc1)C(=O)O` (stereo not shown) [PD212]: the figures for the IC50 (at GGTase; at FTase; in assay [1] (setting [2])) were 4.5 nM, 3 nM and 110 nM, respectively.
The corresponding values for `CSCC[C@H](NC(=O)C(/C=C/[C@@H](/C=C/[C@@H](N)CS)C(C)C)C(C)C)C(=O)NC(C)(C)C` (stereo partly shown) [PD222] are 3040 nM, 710 nM and > 50000 nM.
Consider `CSCC[C@H](NC(=O)C(/C=C/[C@@H](/C=C/C(N)CS)C(C)C)C(C)C)C(=O)O` (stereo partly shown) [PD341], for which the IC50 on FTase was 0.2 nM; in assay [1] (setting [2]), 290 nM.
Regarding `CC(C)[C@@H](/C=C\C(Cc1ccccc1)C(=O)NC(CO)C(=O)O)/C=C/C(N)CS` (stereo partly shown) [PD361], the IC50 at FTase turned out to be 0.1 nM; in assay [1] (setting [2]), 3500 nM.
The corresponding values for `COC(=O)C(CCSC)NC(=O)C(/C=C\[C@@H](/C=C/C(N)CS)C(C)C)Cc1ccccc1` (stereo partly shown) [PD371] are 38 nM and 90 nM.
Turning to `CC(C)CC(NC(=O)C(/C=C\[C@@H](/C=C/C(N)CS)C(C)C)Cc1ccccc1)C(=O)O` (stereo partly shown) [PD381], the IC50 on FTase is 80 nM.
In the case of `CSCC[C@H](NC(=O)C(/C=C/[C@@H](/C=C/C(N)CS)Cc1ccccc1)C(C)C)C(=O)O` (stereo partly shown) [PD391], the values for the IC50 (on FTase; in assay [1] (setting [2])) were 29 nM and 16400 nM, respectively.
Consider `CSCC[C@H](NCC(/C=C\[C@@H](/C=C/C(N)CS)C(C)C)Cc1ccccc1)C(=O)O` (stereo partly shown) [PD431], for which the results for the IC50 on GGTase and on FTase were 1080 nM and 6 nM, respectively.
